From US5234937A, “3,5-di-tertiary-butyl-4-hydroxphenyl oxazolyl methanones and related compounds as antiinflammatory agents” (Warner-Lambert Company, priority 1991, dated 1993)
pIC50: −log10 of the molar value.

Columns and labels:
Cyclooxygenase = assay: ARBC whole cell cyclooxygenase assay (PGF2α formation, RBL-1 cells); type: cell-based, rat; conditions: A23187 stimulated
Protocol: (§1) ARBL/ARBC Cell 5-Lipoxygenase and Cyclooxygenase Assays The rat basophilic leukemia cell line (RBL-1) was obtained from the American Type Culture Collection (Rockville, MD). Radioimmunoassay (RIA) kits of LTB4 and PGF2α were obtained from Amersham (Arlington Heights, IL) and Seragen (Boston, MA), respectively. RBL-1 cells are grown in suspension culture in Eagle's minimum essential medium supplemented with 12% fetal bovine serum at 37° C in an incubator supplied with air-5% carbon dioxide. Cells are harvested by centrifugation. They are washed with cold phosphate buffered saline pH 7.4 (PBS; NaCl, 7.1 g; Na2 HPO4, 1.15 g; KH2 PO4, 0.2 g; and KCl, 0.2 g/L). Cells are finally suspended in PBS containing 1.0 mM calcium at a density of 2×10^6 cells/mL. Cells are incubated with and without test agent (in DMSO) (1% DMSO is without effect on arachidonic acid metabolism) for 10 minutes at room temperature. Calcium ionophore A23187 (5 μM) is added and cells are incubated for 7 minutes at 37° C. The reaction is stopped by chilling the tubes on ice for 10 minutes. Cells are separated by centrifugation and the supernatant is stored at -20° C. Aliquots (100 μ L) are analyzed for LTB4 and PGF2α using radioimmunoassay kits as provided by the supplier. Table I contains biochemical data obtained from this whole cell assay as IC50 s which are calculated as the amount of test compound causing 50% inhibition or % of inhibition at the named micromoles (μM) of […] or PGF2α formation.

5-Lipoxygenase = molecular target: T1, 5-Lipoxygenase (Rattus norvegicus, UniProt P12527); assay: ARBL whole cell 5-lipoxygenase assay (LTB4 formation, RBL-1 cells); type: cell-based; conditions: A23187 stimulated; for inhibition at 10 µM: read-out: ARBL Percent inhibition of LTB4 @ 10 μM
T1 construct: host or cells: RBL-1 (rat basophilic leukemia)
T1 sequence (P12527 1-673): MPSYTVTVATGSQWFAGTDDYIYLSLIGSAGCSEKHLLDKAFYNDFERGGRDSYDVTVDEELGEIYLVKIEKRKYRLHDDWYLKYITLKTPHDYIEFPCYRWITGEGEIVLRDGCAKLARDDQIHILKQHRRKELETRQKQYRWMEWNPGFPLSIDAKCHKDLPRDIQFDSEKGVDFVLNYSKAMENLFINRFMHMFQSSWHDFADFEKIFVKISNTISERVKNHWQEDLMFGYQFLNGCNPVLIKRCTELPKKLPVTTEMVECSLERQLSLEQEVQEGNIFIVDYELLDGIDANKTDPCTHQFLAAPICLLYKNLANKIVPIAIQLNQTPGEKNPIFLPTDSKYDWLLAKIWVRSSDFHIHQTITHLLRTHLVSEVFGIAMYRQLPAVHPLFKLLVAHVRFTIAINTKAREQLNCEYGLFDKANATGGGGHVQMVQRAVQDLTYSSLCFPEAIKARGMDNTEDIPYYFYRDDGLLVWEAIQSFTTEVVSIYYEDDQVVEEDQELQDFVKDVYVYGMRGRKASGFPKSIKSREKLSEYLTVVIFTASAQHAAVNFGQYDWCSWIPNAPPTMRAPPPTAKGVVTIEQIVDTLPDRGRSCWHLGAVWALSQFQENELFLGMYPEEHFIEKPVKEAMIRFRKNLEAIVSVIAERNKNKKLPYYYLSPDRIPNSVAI
Protocol: as §1

[1] = tested on: Carrageenan-induced rat foot paw edema; assay: Carrageenan-induced rat foot paw edema 2 (CFE 2) assay; type: in vivo; conditions: 3 mg/kg, dosed 1 hour before carrageenan, edema measured 5 hours after carrageenan
Protocol: Carraogenan-Induced Rat Foot Paw Edema 2 (CFE 2) Assay: Protocol
Carageenan solution (1% w/v) is prepared by dissolving 100 mg carrageenan (Marine Colloidal Div., Springfield, NJ) in 10 mL of sterile saline (0.9%) solution (Travenol). The solution is vortexed for 30 to 45 minutes. Animals are dosed with compound 1 hour before carrageenan challenge. Foot paw edema is induced by injecting 0.10 mL of the 1% carrageenan subcutaneously into the plantar portion of the right hind paw of each rat under light anesthesia. Initial foot paw volume is measured immediately following carrageenan challenge using mercury plethysmography (Buxco Electronics). Edema is measured 5 hours after carrageenan. The difference between the 5-hour and the initial paw volume is expressed as delta edema. The delta edema for each test group of animals is used to calculate the percent inhibition of edema achieved by the compound at the test dose compared with the vehicle control group. The data in Table I (the dose at which swelling is inhibited by the noted percent) is calculated by probit analysis for the dose at which percent inhibition occurs.

Row | pIC50 (Cyclooxygenase; PGF2α by RIA) | pIC50 (5-Lipoxygenase; LTB4 by RIA, read-out: ARBL IC50 for LTB4 inhibition) | inhibition at 10 µM (5-Lipoxygenase) [%] | SMILES | CFE percent inhibition of edema [1] [%] | ARBC Percent inhibition of PGF2α @ 10 μM (Cyclooxygenase) [%]
1 | 7.22 | 6.08 |  | Cc1cc(C(=O)c2cc(C(C)(C)C)c(O)c(C(C)(C)C)c2)no1 [Example 1, [3,5-Bis(1,1-dimethylethyl)-4-hydroxyphenyl](5-methyl-3-isoxazolyl)methanon] | 37 | 
2 |  |  | 91 | CC(C)(C)c1cc(C(=O)c2nccs2)cc(C(C)(C)C)c1O [Example 4, [3,5-Bis(1,1 dimethylethyl)-4-hydroxyphenyl]-2-thiazolylmethanone] |  | 91
3 |  |  | 100 | CON=C(c1cc(C(C)(C)C)c(O)c(C(C)(C)C)c1)c1cc(C)on1 [Example 14] |  | 97
